Key:
Experiment in all cases: area under dose-response curve of surviving fraction (unscaled, Aref=0) (surviving fraction x log10(nM)); higher = more resistant
Conditions in all cases: exposure time: 5 days; dose range 0.5-1000 nM
[1] = compound: O=c1[nH]cc(F)c(=O)[nH]1 [FLUOROURACIL]
How it was run: (§1)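 Each tumour cell line was screened three times in 384-well plates, receiving eight inhibitor concentrations from 0.5 to 1000 nM for five days. CellTiter-Glo luminescence gave viability, normalised to DMSO-only wells. Using the drc R package, surviving fractions were fitted with 3-parameter logistic dose-response curves, and the unscaled activity area over log10 dose (Aref = 0) was taken as the area under the curve.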

[2] = compound: CC[C@@H](C(=O)[C@@H](C)[C@@H](O)[C@H](C)[C@@H]1O[C@@H]([C@@H](CC)C(=O)O)CC[C@@H]1C)[C@H]1O[C@]2(C=C[C@@H](O)[C@]3(CC[C@@](C)([C@H]4CC[C@](O)(CC)[C@H](C)O4)O3)O2)[C@H](C)C[C@@H]1C [SALINOMYCIN]
How it was run: as §1

[3] = compound: COc1ccc(C2=N[C@@H](c3ccc(Cl)cc3)[C@@H](c3ccc(Cl)cc3)N2C(=O)N2CCNC(=O)C2)c(OC(C)C)c1 [NUTLIN3]
How it was run: as §1

Test System | area under dose-response curve [1] | area under dose-response curve [2] | area under dose-response curve [3]
CCK81 LARGE INTESTINE | 2.58 |  | 
G292 BONE | 3.29 | 2.65 | 3.34
HCC38 BREAST | 2.87 | 2.83 | 4.18
HCC70 BREAST |  | 2.56 | 3.49
HMLE3 BREAST |  | 2.7 | 
HMT3552 BREAST | 3.23 |  | 
HS578T BREAST | 2.85 | 2.87 | 

Reference: the supplement of paper PMC6045584
